# Tests used:
# Aspergillus fumigatus = assay: Antifungal activity against Aspergillus fumigatus MSU-SM 920 after 2 to 4 days; format: functional
# Trichophyton rubrum = assay: Antifungal activity against Trichophyton rubrum after 2 to 4 days; format: functional
# Microsporum canis = assay: Antifungal activity against Microsporum canis after 2 to 4 days; format: functional
# Candida albicans = assay: Antifungal activity against Candida albicans MSU-SM 543 after 2 to 4 days; format: functional
# [1] = Toxicity against human erythrocytes at 20 ppm after 60 mins by turbidimetry; format: cell-based; conditions: erythrocyte, 1 h
# [2] = Toxicity against rat WB-F344 cells assessed as cell viability at 20 ppm after 1 hr using trypan blue staining by LDH assay; format: cell-based; conditions: read-out: Activity
# [3] = Toxicity against human erythrocytes at 0.05 ppm after 60 mins by turbidimetry; format: cell-based; conditions: erythrocyte, 1 h
# [4] = Toxicity against rat WB-F344 cells assessed as cell viability at 50 ppm after 1 hr using trypan blue staining by LDH assay; format: cell-based; conditions: read-out: Activity
# [5] = Toxicity against rat WB-F344 cells assessed as cell viability at 0.05 ppm after 1 hr using trypan blue staining by LDH assay; format: cell-based; conditions: read-out: Activity
# [6] = Toxicity against human erythrocytes at 50 ppm after 60 mins by turbidimetry; format: cell-based; conditions: erythrocyte, 1 h
# [7] = Toxicity against human erythrocytes at 0.5 ppm after 60 mins by turbidimetry; format: cell-based; conditions: erythrocyte, 1 h
# [8] = Toxicity against rat WB-F344 cells assessed as cell viability at 0.5 ppm after 1 hr using trypan blue staining by LDH assay; format: cell-based; conditions: read-out: Activity
Compound,MIC (Aspergillus fumigatus) [µg/mL],MIC (Trichophyton rubrum) [µg/mL],MIC (Microsporum canis) [µg/mL],MIC (Candida albicans) [µg/mL],Activity [1],"viability at 1 h, 20 ppm [2] [%]",Activity [3],"viability at 1 h, 50 ppm [4] [%]","viability at 1 h, 0.05 ppm [5] [%]",Activity [6],Activity [7],"viability at 1 h, 0.5 ppm [8] [%]"
CC(=O)N1CCN(c2ccc(OCC3COC(Cn4ccnc4)(c4ccc(Cl)cc4Cl)O3)cc2)CC1 (configuration not stated) [KETOCONAZOLE],1,5.5,5.5,0.5,–,–,–,–,–,–,–,–
NYSTATIN,100,100,100,3.2,–,–,–,–,–,–,–,–
Clc1ccccc1C(c1ccccc1)(c1ccccc1)n1ccnc1 [CLOTRIMAZOLE],1,80,16,1,–,–,–,–,–,–,–,–
C[C@@H]1[C@H](O)[C@@H](C)/C=C/C=C/C=C/C=C/C=C/C=C/C=C/[C@H](O[C@@H]2O[C@H](C)[C@@H](O)[C@H](N)[C@@H]2O)C[C@@H]2O[C@](O)(C[C@@H](O)C[C@@H](O)[C@H](O)CC[C@@H](O)C[C@@H](O)CC(=O)O[C@H]1C)C[C@H](O)[C@H]2C(=O)O [AMPHOTERICIN B],80,16,16,3.2,Toxic,0,Non-toxic,0,100,Toxic,Non-toxic,100
Clc1ccc(COC(Cn2ccnc2)c2ccc(Cl)cc2Cl)c(Cl)c1 (configuration not stated) [MICONAZOLE],8,80,16,1,–,–,–,–,–,–,–,–
C[C@@H]1C/C=C/C=C/C=C/C=C/[C@H](O[C@@H]2O[C@H](C)[C@@H](O)[C@H](N)[C@@H]2O)C[C@@H]2O[C@](O)(C[C@@H](O)C[C@H]3O[C@@H]3/C=C/C(=O)O1)C[C@H](O)[C@H]2C(=O)O [NATAMYCIN],16,16,16,5.5,–,–,–,–,–,–,–,–

# Source: ChEMBL document CHEMBL1147296, “Faeriefungin: a new broad-spectrum antibiotic from Streptomyces griseus var. autotrophicus” (J Nat Prod, 1989)
